Assay results taken from ChEMBL document CHEMBL4177694, “Discovery of the first low-shift positive allosteric modulators for the muscarinic M1 receptor” (Bioorg Med Chem Lett, 2017).
Calls of active or inactive are those of the source. The calls are words filed in the database; no cut-off is given here.

What was measured:
[1] = biological target: T1, Muscarinic acetylcholine receptor M1 (Homo sapiens, UniProt P11229); assay: Positive allosteric modulation of human wild type M1 receptor assessed as increase in acetylcholine-induced calcium flux by FLIPR assay; format: functional
T1 sequence (P11229 whole entry): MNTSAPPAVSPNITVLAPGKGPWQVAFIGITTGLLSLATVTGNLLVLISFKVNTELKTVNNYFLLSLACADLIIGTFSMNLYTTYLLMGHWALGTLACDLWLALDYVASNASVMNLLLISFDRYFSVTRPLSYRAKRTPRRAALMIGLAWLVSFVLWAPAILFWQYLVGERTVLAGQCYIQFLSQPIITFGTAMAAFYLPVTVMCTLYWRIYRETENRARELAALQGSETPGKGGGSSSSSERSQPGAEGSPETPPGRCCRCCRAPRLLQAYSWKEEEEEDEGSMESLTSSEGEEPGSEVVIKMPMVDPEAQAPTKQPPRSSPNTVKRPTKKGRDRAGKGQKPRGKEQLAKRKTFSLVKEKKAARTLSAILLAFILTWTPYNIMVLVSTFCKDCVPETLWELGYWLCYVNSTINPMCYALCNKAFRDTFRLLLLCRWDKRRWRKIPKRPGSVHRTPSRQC

[2] = biological target: T2, Muscarinic acetylcholine receptor M1 (Homo sapiens) (UniProt P11229); assay: Positive allosteric modulation of human wild type M1 receptor assessed as increase in acetylcholine-induced calcium flux by FLIPR assay relative to acetylcholine; format: functional
T2 sequence (whole entry): T1 sequence (P11229 whole entry)

[3] = biological target: Muscarinic acetylcholine receptor M1 (Rattus norvegicus, UniProt P08482); assay: Positive allosteric modulation of rat M1 receptor assessed as increase in acetylcholine-induced calcium flux by FLIPR assay; format: functional
Muscarinic acetylcholine receptor M1 (Rattus norvegicus, UniProt P08482), sequence (P08482 whole entry): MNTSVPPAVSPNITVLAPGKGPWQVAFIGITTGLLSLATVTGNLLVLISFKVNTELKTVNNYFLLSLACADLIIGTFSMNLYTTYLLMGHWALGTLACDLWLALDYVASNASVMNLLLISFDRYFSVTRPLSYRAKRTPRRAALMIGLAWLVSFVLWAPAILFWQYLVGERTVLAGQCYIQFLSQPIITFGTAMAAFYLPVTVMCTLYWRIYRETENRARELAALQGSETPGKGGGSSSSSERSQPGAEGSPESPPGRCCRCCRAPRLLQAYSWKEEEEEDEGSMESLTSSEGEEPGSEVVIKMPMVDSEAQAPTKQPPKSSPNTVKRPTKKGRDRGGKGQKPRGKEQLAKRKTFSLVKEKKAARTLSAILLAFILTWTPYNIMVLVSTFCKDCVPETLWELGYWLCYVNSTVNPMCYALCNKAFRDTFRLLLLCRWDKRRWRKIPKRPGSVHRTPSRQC

[4] = biological target: Muscarinic acetylcholine receptor M1 (Rattus norvegicus) (UniProt P08482); assay: Positive allosteric modulation of rat M1 receptor assessed as increase in acetylcholine-induced calcium flux by FLIPR assay relative to acetylcholine; format: functional
Muscarinic acetylcholine receptor M1 (Rattus norvegicus), sequence (P08482 whole entry): as above

[5] = biological target: T2, Muscarinic acetylcholine receptor M1 (Homo sapiens); assay: Agonist activity at M1 receptor (unknown origin) up to 10 uM; format: functional
[6] = biological target: Muscarinic acetylcholine receptor M2 (Homo sapiens) (UniProt P08172); assay: Agonist activity at M2 receptor (unknown origin) up to 10 uM; format: functional
Muscarinic acetylcholine receptor M2 (Homo sapiens), sequence (P08172 whole entry): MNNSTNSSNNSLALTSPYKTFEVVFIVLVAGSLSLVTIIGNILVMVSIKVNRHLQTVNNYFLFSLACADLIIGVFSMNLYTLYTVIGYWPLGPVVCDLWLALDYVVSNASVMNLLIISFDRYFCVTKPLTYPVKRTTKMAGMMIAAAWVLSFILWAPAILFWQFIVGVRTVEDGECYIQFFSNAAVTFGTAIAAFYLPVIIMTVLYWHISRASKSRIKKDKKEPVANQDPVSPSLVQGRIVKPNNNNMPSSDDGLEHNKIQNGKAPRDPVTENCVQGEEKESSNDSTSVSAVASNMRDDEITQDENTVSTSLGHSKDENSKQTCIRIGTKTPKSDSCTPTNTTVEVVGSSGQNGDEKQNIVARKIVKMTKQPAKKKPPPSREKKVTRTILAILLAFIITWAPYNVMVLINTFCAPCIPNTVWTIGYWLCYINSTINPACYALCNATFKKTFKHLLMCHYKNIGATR

[7] = biological target: Muscarinic acetylcholine receptor M3 (Homo sapiens) (UniProt P20309); assay: Agonist activity at M3 receptor (unknown origin) up to 10 uM; format: functional
Muscarinic acetylcholine receptor M3 (Homo sapiens), sequence (P20309 whole entry, looked up): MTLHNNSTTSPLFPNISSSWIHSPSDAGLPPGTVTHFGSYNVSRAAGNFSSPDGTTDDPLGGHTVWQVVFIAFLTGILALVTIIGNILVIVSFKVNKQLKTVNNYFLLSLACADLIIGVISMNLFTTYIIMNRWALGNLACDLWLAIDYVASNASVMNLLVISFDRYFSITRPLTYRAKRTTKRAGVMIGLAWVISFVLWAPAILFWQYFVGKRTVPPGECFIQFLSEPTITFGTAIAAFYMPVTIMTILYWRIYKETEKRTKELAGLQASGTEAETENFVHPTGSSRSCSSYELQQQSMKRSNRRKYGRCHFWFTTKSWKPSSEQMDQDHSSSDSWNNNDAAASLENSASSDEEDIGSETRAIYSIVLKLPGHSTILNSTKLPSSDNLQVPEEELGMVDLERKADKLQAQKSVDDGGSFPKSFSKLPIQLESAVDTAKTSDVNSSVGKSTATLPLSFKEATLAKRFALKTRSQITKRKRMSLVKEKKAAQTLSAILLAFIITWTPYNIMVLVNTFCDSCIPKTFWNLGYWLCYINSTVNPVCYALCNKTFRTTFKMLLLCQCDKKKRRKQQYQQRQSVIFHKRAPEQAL

[8] = biological target: Muscarinic acetylcholine receptor M4 (Homo sapiens) (UniProt P08173); assay: Agonist activity at M4 receptor (unknown origin) up to 10 uM; format: functional
Muscarinic acetylcholine receptor M4 (Homo sapiens), sequence (P08173 whole entry): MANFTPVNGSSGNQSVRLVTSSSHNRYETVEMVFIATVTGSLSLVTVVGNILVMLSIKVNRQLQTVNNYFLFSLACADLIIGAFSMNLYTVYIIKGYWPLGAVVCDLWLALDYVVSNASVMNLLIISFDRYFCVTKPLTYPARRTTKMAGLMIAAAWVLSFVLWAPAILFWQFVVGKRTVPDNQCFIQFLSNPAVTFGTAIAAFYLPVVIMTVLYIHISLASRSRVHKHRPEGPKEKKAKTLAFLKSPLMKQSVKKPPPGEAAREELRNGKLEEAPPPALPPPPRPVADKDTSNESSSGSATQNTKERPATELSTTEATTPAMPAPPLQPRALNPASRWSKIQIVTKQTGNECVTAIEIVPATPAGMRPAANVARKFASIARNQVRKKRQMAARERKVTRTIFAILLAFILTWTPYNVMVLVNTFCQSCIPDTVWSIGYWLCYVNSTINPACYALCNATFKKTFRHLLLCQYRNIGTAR

[9] = biological target: Muscarinic acetylcholine receptor M5 (Homo sapiens) (UniProt P08912); assay: Agonist activity at M5 receptor (unknown origin) up to 10 uM; format: functional
Muscarinic acetylcholine receptor M5 (Homo sapiens), sequence (P08912 whole entry): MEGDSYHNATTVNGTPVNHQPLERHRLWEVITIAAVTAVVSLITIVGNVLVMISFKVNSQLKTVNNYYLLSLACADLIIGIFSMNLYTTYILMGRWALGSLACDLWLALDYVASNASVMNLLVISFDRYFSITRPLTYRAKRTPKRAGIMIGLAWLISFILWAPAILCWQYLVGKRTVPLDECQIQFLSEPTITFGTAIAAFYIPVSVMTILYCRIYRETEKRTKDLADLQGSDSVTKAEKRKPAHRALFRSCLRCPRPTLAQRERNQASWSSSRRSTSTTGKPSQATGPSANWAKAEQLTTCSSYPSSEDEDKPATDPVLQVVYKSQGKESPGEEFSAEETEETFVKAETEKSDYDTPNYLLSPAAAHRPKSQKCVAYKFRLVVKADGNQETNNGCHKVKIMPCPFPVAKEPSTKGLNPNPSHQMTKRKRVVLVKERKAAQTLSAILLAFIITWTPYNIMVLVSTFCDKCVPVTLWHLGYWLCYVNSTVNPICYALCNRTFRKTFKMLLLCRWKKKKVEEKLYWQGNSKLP

[10] = biological target: Muscarinic acetylcholine receptor M2 (Homo sapiens) (UniProt P08172); assay: Positive allosteric modulation of M2 receptor (unknown origin); format: functional
[11] = biological target: Muscarinic acetylcholine receptor M5 (Homo sapiens, UniProt P08912); assay: Positive allosteric modulation of M5 receptor (unknown origin); format: functional
Muscarinic acetylcholine receptor M5, sequence (P08912 whole entry): as above

[12] = biological target: Muscarinic acetylcholine receptor M5 (Homo sapiens) (UniProt P08912); assay: Positive allosteric modulation of M5 receptor (unknown origin) relative to control; format: functional
[13] = biological target: T2, Muscarinic acetylcholine receptor M1 (Homo sapiens); assay: Antagonist activity at M1 receptor (unknown origin); format: functional
[14] = biological target: Muscarinic acetylcholine receptor M1 (Homo sapiens, UniProt P11229, W400A/Y179A); assay: Positive allosteric modulation of M1 receptor Y179A/W400A mutant (unknown origin)
Muscarinic acetylcholine receptor M1 (Homo sapiens, UniProt P11229, W400A/Y179A), sequence (P11229 whole entry Y179A/W400A): as the sequence (P08482 whole entry) above, with V5A, Y179A, S254T, S309P, K320R, G337A, W400A, V413I counted along it

[15] = test system: Muscarinic acetylcholine receptor M1 (Homo sapiens), P11229 [Y179A,W400A]; assay: Positive allosteric modulation of M1 receptor Y179A/W400A mutant (unknown origin) relative to control
Muscarinic acetylcholine receptor M1 (Homo sapiens), P11229 [Y179A,W400A], sequence (P11229 whole entry Y179A/W400A): as the sequence (P08482 whole entry) above, with V5A, Y179A, S254T, S309P, K320R, G337A, W400A, V413I counted along it

[16] = biological target: T2, Muscarinic acetylcholine receptor M1 (Homo sapiens); assay: Receptor occupancy at M1 receptor (unknown origin) at EC50

**Q.** Which EC50 [1] does the source give for `CC(C)[C@@H]1N=C(c2ccccc2F)c2cc(Cl)ccc2NC1=S` here?
**A.** Its EC50 is 80 nM.

**Q.** What about the Emax [2] of the same molecule?
**A.** The Emax was 78%.

**Q.** What about the EC50 [3] of the same molecule?
**A.** Its EC50 is 218 nM.

**Q.** And the Emax [4]?
**A.** The Emax was 88%.

**Q.** And the Activity [5]?
**A.** The Activity was “inactive”.

**Q.** And the Activity [6]?
**A.** The Activity was “inactive”.

**Q.** What about the Activity [7] of the same molecule?
**A.** The Activity was “inactive”.

**Q.** And the Activity [8]?
**A.** Its Activity is “inactive”.

**Q.** What about the Activity [9] of the same molecule?
**A.** The Activity was “inactive”.

**Q.** And the Activity [10]?
**A.** Its Activity is “inactive”.

**Q.** What about the EC50 [11] of the same molecule?
**A.** Its EC50 is 1300 nM.

**Q.** What about the Emax [12] of the same molecule?
**A.** The Emax was 70%.

**Q.** And the Kb [13]?
**A.** Its Kb is 610 nM.

**Q.** And the EC50 [14]?
**A.** The EC50 was 178 nM.

**Q.** What about the Emax [15] of the same molecule?
**A.** The Emax was 80%.

**Q.** What about the Occ [16] of the same molecule?
**A.** Its Occ is 33%.
